# Experimental data published in patent US20180055816A1, “PYRANONAPHTHOQUINONE COMPOUNDS AND METHODS OF USE THEREOF” (University of Kentucky Research Foundation, priority 2016, published 2018).
# Tests used:
# H2O2 = assay: Cellular H2O2 level in HCT116 cells; type: cell-based, human; conditions: HCT116, 2 μM, 5 h
# Method: The ROS production was determined using the CellROX Deep Red Flow Cytometry Assay Kit according to the manufacturer's protocol (Life Technologies). Briefly, cells were treated with 2 μM of the indicated compounds or DMSO as control for 1 h. After treatment, cells were incubated with 0.5 μM of CellROX Deep Red reagent for 1 h at 37° C., washed twice with PBS and immediately analyzed by a FACScan flow cytometer. For the measurement of cellular H2O2 level, cells were treated with 2 μM of the indicated compounds for 5 h.
# p70S6K phosphorylation = p70S6K phosphorylation in HCT116 cells (Western blot); type: cell-based, human; conditions: HCT116, 12 h; 2 μM FB or UCF76-A, 100 nM rapamycin, 0.5 μM AZD8055
# Method: HCT116 cells were treated with 1 μM MK2206 and 100 nM PD0325901 alone and in combination, 100 nM rapamycin, 0.5 μM AZD8055, 2 μM UCF76-A or 2 μM FB for 12 h followed by Western blot analysis for the indicated proteins.
# (§1) Cells were lysed in NP-40 lysis buffer (50 mM Tris-HCl, pH 7.5, 150 mM NaCl, 1 mM EDTA, 1% NP-40, 10% glycerol, protease and phosphatase inhibitor cocktail). Western blot analysis were performed using equivalent total protein loadings as described previously. For immunoprecipitation, the cell lysates were incubated with the indicated antibody overnight followed by incubation with a 50% slurry of protein G sepharose beads for 3 h at 4° C. The beads were washed three times with the lysis buffer, and the immunoprecipitated protein complexes were resuspended in 2× Laemmli sample buffer followed by western blot analysis.
# cellular GSH = assay: Cellular glutathione (GSH) assay in HCT116 cells; type: cell-based, human; conditions: HCT116, 2 μM, 5 h
# Method: Cells were treated with 2 μM of the indicated compounds or DMSO as control for 5 h. After treatment, a total number of 1×10^6 cells were lysed in 100 μl of ice-cold NP-40 lysis buffer for 10 min. The lysate was centrifuged for 10 min and the supernatant was used for glutathione assay using the ApoGSH glutathione detection kit according to the manufacturer's protocol (BioVision Research Products, Mountain view, CA). The total amount of GSH was measured using a fluorescence plate reader at Ex./Em.=380/460 nm.
# 4E-BP1 phosphorylation [1] = assay: Inhibition of 4E-BP1 phosphorylation in HCT116 cells (Western blot); type: cell-based, human; conditions: 12 h
# Method: Compounds that pass this single dose filter are then tested in a CRC (HCT116) in vitro cytotoxicity assay and, in parallel, an in vitro assay to assess propensity for intracellular reactive oxygen species (ROS) production using the redox sensitive probe CeIIROX® Deep Red reagent (Invitrogen) by flow cytometry analysis (47).
# as §1
# Prx1 = biological target: T1, Prx1 (Homo sapiens, UniProt Q06830); assay: Affinity pull-down / binding to Prx1; set-up: endogenous in cells; host or cells: HeLa cell lysates; HCT116 cell lysates; conditions: streptavidin pull-down, competition, Western blot
# T1 sequence (Q06830 1-199): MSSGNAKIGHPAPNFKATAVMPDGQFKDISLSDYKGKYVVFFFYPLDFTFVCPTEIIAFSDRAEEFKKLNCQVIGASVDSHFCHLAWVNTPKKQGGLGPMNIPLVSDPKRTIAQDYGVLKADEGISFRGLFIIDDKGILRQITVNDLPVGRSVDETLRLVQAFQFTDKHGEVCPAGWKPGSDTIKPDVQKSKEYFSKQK
# Method: The precipitates were resolved by SDS-PAGE, and the gel was stained with Coomassie blue. (C) Sequences illustrating amino acids and peptides of Prx1 and Grx3 identified by mass spectrometry analysis. The unique bands as shown by d7-pull down in the experiment for FIG. 20B were excised and subjected to in-gel tryptic digestion and analysis by MS, wherein the identified amino acids and peptides are shown in red characters. (D) Western blot illustrating that HCT116 cell lysates were incubated with different concentrations of d5 or d7 in the absence or presence of a ten-fold excess of FB for 3 h, followed by pull-down with streptavidin-agarose and Western blot analysis for the indicated proteins.
# FIGS. 21A-D show images illustrating that the active probe d7 binds to and co-localizes with Prx1 and Grx3. (A) and (B) The recombinant Prx1 (A) or Grx3 (B) was incubated with d7 for 2 hours, followed by streptavidin pull down and Western blot analysis for the indicated proteins. (C) and (D) HCT116 cells were incubated with 25 μM d5, 25 μM d7 or DMSO as control for 5 hours, followed by confocal sections of the cells staining for Prx1 (C) or Grx3 (D) (red), biotin (green) and DAPI (blue). Scale bars, 10 μm.
# HeLa cell pellets were purchased from National Cell Culture Center (Minneapolis, Minn.) and lysed in 20 ml of the NP-40 lysis buffer. […]
# 4E-BP1 phosphorylation [2] = assay: 4E-BP1 phosphorylation in MDA-MB-231 breast cancer cells (Western blot); type: cell-based, human; conditions: MDA-MB-231 cells, 2 μM, 12 hours
# Method: Cells were treated with 100 nM rapamycin, 0.5 μM AZD8055, 2 μM FB, 2 μM UCF76-A or DMSO control for 12 hours followed by Western blot analysis for the indicated proteins.
# as §1
# GSSG = assay: Quantification of glutathione disulfide (GSSG) in HCT116 cells; type: cell-based, human; conditions: HCT116, 2 μM, 5 h
# Method: Cells were treated with 2 μM of the indicated compounds or DMSO as control for 5 h. Quantification of GSSG was essentially performed using the manufactures instructions for a microplate assay for GSH/GSSG (Oxford Biomedical Research, Inc, Oxford, Mich.). A total number of 0.5×10^6 cells were collected in 1.5 ml centrifuge tubes containing ice-cold buffer with the thiol scavenger to keep GSSG in its oxidized form. The cells were homogenized with a Teflon pestle and the cell suspension sonicated in icy water for 2-3 minutes. Ice-cold metaphosphoric acid was added to deproteinate the samples. The samples were centrifuged at 1000×g at 4° C. and the supernatants were used for determining the GSSG concentration according to the manufactures protocol using a microplate reader with 405 nm filter. The change in GSSG levels in the indicated compound-treated samples was expressed as fold change compared to control (DMSO) treated samples.
compound,measurement,setting,value
"CCCC1OC2CC(=O)OC2C2=C1C(=O)c1c(O)cccc1C2=O (stereo not shown) [FB, frenolicin B]",cellular H2O2,H2O2,marked increase
same,inhibition of p70S6K phosphorylation,p70S6K phosphorylation,only weakly inhibited
same,GSH levels,cellular GSH,decrease
same,inhibition of 4E-BP1 phosphorylation,4E-BP1 phosphorylation [1],effectively inhibited
same,binding to Prx1,Prx1,directly targets
same,inhibition of 4E-BP1 phosphorylation,4E-BP1 phosphorylation [2],selectively inhibit
same,GSSG levels,GSSG,increase
